Data reported in patent publication US20260060947A1 (INSTITUT PASTEUR DE MONTEVIDEO, priority 2019, published 2026).

How the values were obtained:
NF-κB-p65 [1] = assay: LPS-induced NF-κB-p65 nuclear translocation in BV2 cells (immunocytochemistry); type: cell-based, murine; settings: BANA 10, 20, 30 μM, BA 30 μM or DMF for 3 hrs before LPS 100 ng/ml
Protocol: The effect of BANA on nuclear translocation of NF-κB was studied by immunocytochemistry using murine microglia cell line BV2.
Cells were then treated with BANA (10, 20 and 30 μM) or B.A (30 μM) for 3 hrs. After treatment, cells were stimulated with LPS (100 ng/ml) for 30 minutes. Then, cells were washed and fixed with PFA 4% for 20 minutes at 4° C. and washed with PBS. Immunocytochemistry was performed as follows: cells were permeabilized using 0.5% Triton in PBS for 15 minutes, and then blocked using 5% of BSA for 1 h at room temperature. Rabbit anti-NF-κB-p65 (ab16502, 1/200) and mouse anti-CD11b (BD550219, 1/100) were incubated overnight at 4° C. After that, primary antibodies were removed, washed with PBS 3 times for 10 minutes, and Alexa-fluor-conjugated goat anti-rabbit or goat anti-mouse antibodies (1:1000) were incubated for 2 h at room temperature. After secondary antibodies were removed, cells were covered in glycerol mounting medium with 1/2000 DAPI staining. Cells were analyzed by confocal microscopy using a confocal ZEISS LSM 800. NF-κB-p65+ nuclei were counted and ratio of DAPI to NF-κB-p65 labeling was compared among groups. Data were analyzed using analyzing tools of ImageJ and GraphPad Prism 7 software.

NLRP3 inflammasome = assay: Inflammasome activation in THP-1 cells (LPS and ATP), IL-1β ELISA; type: cell-based, Human; settings: 30 μM, in first or second signal (LPS and ATP), compared with vehicle
Protocol: The effect of BANA or BA over NF-κB-dependent gene expression was studied by qPCR using THP-1 cells. THP-1 cells were differentiated into macrophages and treated with BANA (30 μM) or BA (30 μM) for 2 hs, followed by stimulation with LPS (100 ng/mL, for 3-4 h).
For inflammasome activation, THP-1 cells were treated with LPS (as above) followed by exposure to ATP (5 mM, 45 min). IL-1β in the supernatant was then measured by ELISA (B&D OptEIA TM, San Diego, CA, USA).

NF-κB-p65 [2] = assay: LPS-induced NF-κB-p65 nuclear translocation in SOD1^G93A primary microglia; type: cell-based, rat; settings: BANA 10-30 μM before LPS
Protocol: FIG. 8D: Confocal images show CD11b-positive SOD1^G93A primary microglia (grey) treated with BANA, BA or vehicle, before LPS stimulation. […] Nuclear NF-κB-p65 colocalizing with DAPI nuclear staining is denoted in yellow.
Nuclear NF-κB-p65 colocalizing with DAPI nuclear staining is denoted in yellow. […] Scale bar=20 μm. […] 2 replicates of 3 independent experiments.
The effects of BANA on LPS- or TNFα-induced NF-κB activation were also assayed in cell cultures of BV2 microglial cell line and primary adult microglia isolated from symptomatic SOD1^G93A rats, and HT-29 NF-κB reporter cell line, respectively.

Structure (SMILES): O=C(O)c1ccccc1 [benzoic acid, reference compound]
- LPS-induced NF-κB-p65 nuclear translocation (NF-κB-p65 [1]): devoid of inhibitory effect
- release of IL-1β (NLRP3 inflammasome): devoid of anti-inflammatory effects
- LPS-induced NF-κB-p65 nuclear translocation (NF-κB-p65 [2]): devoid of inhibitory effect
